Source: publication PMC12865480 (Pharmaceuticals, 2025)
Values joined by “and” are separate entries in the source; they are usually repeats but may differ in a detail not shown here. Identical values can stand only once. Like-named read-outs stand apart in the source and are kept apart here.

Experiments:
σ2 receptor = target: T1, σ2 receptor (Rattus norvegicus, UniProt Q5U3Y7); experiment: biochemical; format: binding; settings: read-out: Ki ± SEM σ2
T1 sequence (Q5U3Y7 1-176): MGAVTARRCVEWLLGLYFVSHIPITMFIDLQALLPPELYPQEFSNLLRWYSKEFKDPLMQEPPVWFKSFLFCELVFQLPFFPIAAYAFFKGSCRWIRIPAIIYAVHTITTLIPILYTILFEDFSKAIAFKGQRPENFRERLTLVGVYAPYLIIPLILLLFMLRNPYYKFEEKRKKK

[1] = target: PCP binding site of the NMDA receptor; experiment: PCP binding site assay, radioligand [3H](+)-MK-801, pig brain preparations; settings: n = 3, values without SEM mean of two experiments
[2] = target: T2, ifenprodil binding site of NMDA receptors with GluN2B subunit (Homo sapiens, UniProt Q05586+Q13224); experiment: biochemical
T2 construct: expressed in transfected cells; host or cells: mouse L(tk-) cells, stably transfected, expression induced with dexamethasone; membrane homogenate
T2 sequence (Q13224 27-1484, other chains not shown): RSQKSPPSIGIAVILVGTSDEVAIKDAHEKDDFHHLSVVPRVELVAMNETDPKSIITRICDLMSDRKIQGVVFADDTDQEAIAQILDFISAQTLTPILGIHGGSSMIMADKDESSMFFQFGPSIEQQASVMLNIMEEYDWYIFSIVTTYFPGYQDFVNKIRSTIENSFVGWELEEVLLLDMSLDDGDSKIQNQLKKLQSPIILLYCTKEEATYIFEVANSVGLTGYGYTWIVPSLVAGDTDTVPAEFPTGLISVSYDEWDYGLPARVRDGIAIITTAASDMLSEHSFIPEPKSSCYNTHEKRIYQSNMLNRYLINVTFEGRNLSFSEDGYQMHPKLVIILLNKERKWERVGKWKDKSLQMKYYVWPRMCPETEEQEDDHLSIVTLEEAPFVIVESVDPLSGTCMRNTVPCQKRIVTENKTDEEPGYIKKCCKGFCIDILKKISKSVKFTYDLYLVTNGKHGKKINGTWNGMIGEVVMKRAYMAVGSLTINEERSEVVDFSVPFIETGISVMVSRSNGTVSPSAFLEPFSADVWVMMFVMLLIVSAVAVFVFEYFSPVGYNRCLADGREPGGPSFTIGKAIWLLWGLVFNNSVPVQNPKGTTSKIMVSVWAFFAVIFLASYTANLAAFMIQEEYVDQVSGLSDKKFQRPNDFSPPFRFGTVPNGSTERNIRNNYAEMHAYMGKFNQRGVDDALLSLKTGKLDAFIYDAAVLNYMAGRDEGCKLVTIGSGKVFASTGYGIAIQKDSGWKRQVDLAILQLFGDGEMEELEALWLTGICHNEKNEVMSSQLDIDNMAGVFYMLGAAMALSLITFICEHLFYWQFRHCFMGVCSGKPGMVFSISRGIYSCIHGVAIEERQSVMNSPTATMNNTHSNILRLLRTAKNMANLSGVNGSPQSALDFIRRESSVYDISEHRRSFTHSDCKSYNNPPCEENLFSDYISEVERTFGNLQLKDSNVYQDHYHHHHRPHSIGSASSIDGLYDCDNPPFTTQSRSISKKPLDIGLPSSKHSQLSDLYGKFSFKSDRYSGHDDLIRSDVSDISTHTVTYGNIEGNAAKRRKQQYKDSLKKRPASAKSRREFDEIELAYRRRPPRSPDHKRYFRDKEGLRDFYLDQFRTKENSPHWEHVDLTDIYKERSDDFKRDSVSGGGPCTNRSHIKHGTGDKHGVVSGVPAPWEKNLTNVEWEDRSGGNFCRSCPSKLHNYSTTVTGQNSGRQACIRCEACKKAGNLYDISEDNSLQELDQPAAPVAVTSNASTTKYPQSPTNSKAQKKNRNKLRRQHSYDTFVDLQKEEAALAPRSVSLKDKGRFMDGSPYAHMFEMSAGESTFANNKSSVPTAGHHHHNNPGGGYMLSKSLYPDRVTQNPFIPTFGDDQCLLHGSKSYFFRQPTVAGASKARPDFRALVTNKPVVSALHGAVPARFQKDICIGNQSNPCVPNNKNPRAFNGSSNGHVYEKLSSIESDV

σ1 receptor [3] = target: T3, σ1 receptor (Cavia porcellus, UniProt Q60492); experiment: biochemical
T3 sequence (Q60492 whole entry): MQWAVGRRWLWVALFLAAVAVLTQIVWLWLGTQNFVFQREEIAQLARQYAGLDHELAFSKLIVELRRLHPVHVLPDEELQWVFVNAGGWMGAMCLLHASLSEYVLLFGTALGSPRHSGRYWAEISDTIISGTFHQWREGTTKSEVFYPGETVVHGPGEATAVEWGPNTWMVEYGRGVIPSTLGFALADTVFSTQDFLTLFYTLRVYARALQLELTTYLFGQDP

µ-opioid receptor = µ-opioid receptor (Cavia porcellus, UniProt A0ACM8Q262); experiment: µ-opioid receptor binding study; settings: read-out: inhibition of the radioligand binding, µ receptor
Sequence of µ-opioid receptor (A0ACM8Q262 1-400): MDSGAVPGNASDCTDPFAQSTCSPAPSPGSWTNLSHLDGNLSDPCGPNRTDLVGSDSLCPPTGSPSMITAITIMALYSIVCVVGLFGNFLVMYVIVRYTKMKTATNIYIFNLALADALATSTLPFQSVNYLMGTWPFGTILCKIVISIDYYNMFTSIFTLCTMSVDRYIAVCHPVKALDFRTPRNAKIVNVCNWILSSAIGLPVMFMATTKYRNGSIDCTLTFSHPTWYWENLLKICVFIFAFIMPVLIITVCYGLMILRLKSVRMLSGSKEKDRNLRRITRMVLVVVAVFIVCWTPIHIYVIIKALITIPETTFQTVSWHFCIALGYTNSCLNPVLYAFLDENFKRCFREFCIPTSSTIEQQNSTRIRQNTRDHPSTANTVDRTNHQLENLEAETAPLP

κ-opioid receptor = κ-opioid receptor (Cavia porcellus, UniProt P41144); experiment: κ-opioid receptor binding study; settings: read-out: inhibition of the radioligand binding, κ receptor
Sequence of κ-opioid receptor (P41144 whole entry): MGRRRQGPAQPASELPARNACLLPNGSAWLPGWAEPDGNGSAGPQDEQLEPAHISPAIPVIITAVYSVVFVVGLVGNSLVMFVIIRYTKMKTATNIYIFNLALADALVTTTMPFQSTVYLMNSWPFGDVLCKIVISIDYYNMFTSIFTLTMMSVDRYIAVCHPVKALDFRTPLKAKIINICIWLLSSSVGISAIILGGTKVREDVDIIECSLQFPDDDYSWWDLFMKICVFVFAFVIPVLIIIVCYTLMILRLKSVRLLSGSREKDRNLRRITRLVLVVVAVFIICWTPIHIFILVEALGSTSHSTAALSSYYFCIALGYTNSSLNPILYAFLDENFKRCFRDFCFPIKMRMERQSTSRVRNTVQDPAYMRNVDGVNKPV

δ-opioid receptor = δ-opioid receptor (Rattus norvegicus, UniProt P33533); experiment: δ-opioid receptor binding study; settings: read-out: inhibition of the radioligand binding, δ receptor
Sequence of δ-opioid receptor (P33533 whole entry): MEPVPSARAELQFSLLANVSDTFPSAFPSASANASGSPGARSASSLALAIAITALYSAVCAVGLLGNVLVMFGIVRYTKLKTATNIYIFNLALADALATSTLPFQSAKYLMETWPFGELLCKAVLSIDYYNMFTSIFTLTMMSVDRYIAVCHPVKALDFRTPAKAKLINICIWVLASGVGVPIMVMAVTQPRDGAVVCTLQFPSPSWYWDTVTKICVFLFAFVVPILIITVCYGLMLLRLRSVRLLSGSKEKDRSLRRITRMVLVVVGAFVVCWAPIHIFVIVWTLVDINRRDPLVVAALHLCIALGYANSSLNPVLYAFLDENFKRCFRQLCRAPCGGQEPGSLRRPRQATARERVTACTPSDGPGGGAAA

σ1 receptor [4] = target: T3, σ1 receptor; settings: for σ1:σ2 receptor selectivity: σ1 over σ2
[5] = after 90 min incubation with mouse liver microsomes and NADPH
physchem = settings: pH 7.4
σ1 receptor [6] = target: T3, σ1 receptor; settings: earlier study; cited from earlier work
[7] = target: PCP binding site of the NMDA receptor; settings: earlier study; cited from earlier work
[8] = system: capsaicin mouse model of neuropathic pain; settings: dose of 0.25 mg/kg body weight; cited from earlier work

SMILES | Ki (σ2 receptor) [nM] | Ki [1] [nM] | Ki ([2]; read-out: Ki ± SEM GluN2B) [nM] | Ki (σ1 receptor [3]; Ki ± SEM σ1) [nM] | LLE (ligand-lipophilicity efficiency) (σ1 receptor [4]) | Metabolic Stability (5): amount of the remaining unmetabolized parent compound [5] | logD (physchem) | Ki (σ1 receptor [3]; pKi(σ1)) [nM] | other results
c1ccc(CNC(CCC[C@H]2CCO[C@@H](c3ccccc3)O2)c2ccccc2)cc1 (relative stereo) [26a, N-Benzyl-1-phenyl-4-(cis-2-phenyl-1,3-dioxan-4-yl)butan-1-amine] | 907 | > 1000 | > 1000 | 918 | – | – | – | – | –
CNC(CCC[C@H]1CCO[C@@H](c2ccccc2)O1)c1ccccc1 (relative stereo) [25a, N-Methyl-1-phenyl-4-(cis-2-phenyl-1,3-dioxan-4-yl)butan-1-amine] | > 1000 | > 1000 | 716 | 144 ± 26 | – | – | – | – | –
CN(CCCC[C@H]1CCO[C@@H](c2ccccc2)O1)Cc1ccccc1 (relative stereo) [18a, N-Benzyl-N-methyl-4-(cis-2-phenyl-1,3-dioxan-4-yl)butan-1-amine] | 31 ± 3.1 | > 1000 | 261 ± 54 | 6.3 ± 2.4 | 5.71 | 48 ± 4% | 2.49 ± 0.05 | 6.31 | inhibition at 1 µM (µ-opioid receptor): 0%; inhibition at 1 µM (κ-opioid receptor): 0%; inhibition at 1 µM (δ-opioid receptor): 0%; selectivity for the σ1 receptor against the ifenprodil binding site (σ1 receptor [4]): > 40 fold; σ1:σ2 receptor selectivity (σ1 receptor [4]): 5 fold
CC[C@]1(c2ccccc2)OCC[C@H](CCCCN2CCCC2)O1 (relative stereo) [19b, 1-[4-(trans-2-Ethyl-2-phenyl-1,3-dioxan-4-yl)butyl]pyrrolidine] | 57 ± 1.9 | > 1000 | – | 56 ± 19 | 5.96 | 62 ± 2% | 1.29 ± 0.05 | 56.2 | Ki [2]: 67 ± 18 nM
CCC1(c2ccccc2)OCCC(CCCC(N)c2ccccc2)O1 (stereo not drawn) [24b, 4-(trans-2-Ethyl-2-phenyl-1,3-dioxan-4-yl)-1-phenylbutan-1-amine] | 170 | 524 | 136 ± 36 | 427 | – | – | – | – | –
c1ccc(CNCCC2CCCC(c3ccccc3)O2)cc1 (stereo not shown) [compound 3] | – | – | – | – | – | – | – | – | Ki (σ1 receptor [6]): 6.4 nM
CCC1(c2ccccc2)OCCC(CCN)O1 (stereo not shown) [2a] | – | – | – | – | – | – | – | – | Ki (σ1 receptor [6]): 955 nM; Ki [7]: 19 nM
c1ccc(CNCCC2CCOC(c3ccccc3)O2)cc1 (stereo not shown) [compound 1] | – | – | – | – | – | – | – | – | analgesic activity [8]: 70%
CCC1(c2ccccc2)OCCC(CCCC(c2ccccc2)N2CCCC2)O1 (stereo not drawn) [27b, 1-[4-(trans-2-Ethyl-2-phenyl-1,3-dioxan-4-yl)-1-phenylbutyl]pyrrolidine] | 64 ± 15 | > 1000 | – | 19 ± 0.6 | 4.39 | 55 ± 5% | 3.33 ± 0.08 | 19.1 | Ki [2]: 63 ± 20 nM
CCC1(c2ccccc2)OCCC(CCCC(NCc2ccccc2)c2ccccc2)O1 (stereo not drawn) [26b, N-Benzyl-4-(trans-2-ethyl-2-phenyl-1,3-dioxan-4-yl)-1-phenylbutan-1-amine] | 139 | > 1000 | 257 ± 57 | 88 ± 43 | – | – | – | – | –
NC(CCC[C@H]1CCO[C@@H](c2ccccc2)O1)c1ccccc1 (relative stereo) [24a, 1-Phenyl-4-(cis-2-phenyl-1,3-dioxan-4-yl)butan-1-amine] | – | > 1000 | 1350 | > 1000 | – | – | – | – | –
CCC1(c2ccccc2)OCCC(CCCC(NC)c2ccccc2)O1 (stereo not drawn) [25b, 4-(trans-2-Ethyl-2-phenyl-1,3-dioxan-4-yl)-N-methyl-1-phenylbutan-1-amine] | 255 | > 1000 | 190 ± 39 | 58 ± 8.2 | – | – | – | – | –
c1ccc(CNCCCC[C@H]2CCO[C@@H](c3ccccc3)O2)cc1 (relative stereo) [17a, N-Benzyl-4-(cis-2-phenyl-1,3-dioxan-4-yl)butan-1-amine] | 213 | > 1000 | > 1000 | 31 ± 4 | 6.19 | 56% and 56 ± 3% | 1.32 ± 0.04 | 30.9 | inhibition at 1 µM (µ-opioid receptor): 3%; inhibition at 1 µM (κ-opioid receptor): 0%; selectivity for the σ1 receptor against the ifenprodil binding site (σ1 receptor [4]): > 30 fold; selectivity for the σ1 receptor over δ-opioid receptors (σ1 receptor [4]; σ1 over δ-opioid receptor): 9 fold; σ1:σ2 receptor selectivity (σ1 receptor [4]): approx. 7 fold
CNCCCC[C@H]1CCO[C@@H](c2ccccc2)O1 (relative stereo) [16a, N-Methyl-4-(cis-2-phenyl-1,3-dioxan-4-yl)butan-1-amine] | > 1000 | > 1000 | > 1000 | 842 | – | – | – | – | –
CC[C@]1(c2ccccc2)OCC[C@H](CCCCNC)O1 (relative stereo) [16b, 4-(trans-2-Ethyl-2-phenyl-1,3-dioxan-4-yl)-N-methylbutan-1-amine] | 311 | > 1000 | > 1000 | 107 ± 5 | – | – | – | – | –
CC[C@]1(c2ccccc2)OC[C@H]([C@@H]2CCCCN2)O1 [etoxadrol] | – | – | – | – | – | – | – | – | Ki [7]: 22 nM
c1ccc(CNCCCC2CCOC(c3ccccc3)O2)cc1 (stereo not shown) [compound 4] | – | – | – | – | – | – | – | – | Ki (σ1 receptor [6]): 164 nM
NCCCC[C@H]1CCO[C@@H](c2ccccc2)O1 (relative stereo) [14a, 4-(cis-2-Phenyl-1,3-dioxan-4-yl)butan-1-amine] | > 1000 | > 1000 | > 1000 | > 1000 | – | – | – | – | IC50 (σ1 receptor [3]): > 1000 nM
CC[C@]1(c2ccccc2)OCC[C@H](CCCCN)O1 (relative stereo) [14b, 4-(trans-2-Ethyl-2-phenyl-1,3-dioxan-4-yl)butan-1-amine] | > 1000 | 731 | > 1000 | > 1000 | – | – | – | – | IC50 (σ1 receptor [3]): > 1000 nM
CC[C@]1(c2ccccc2)OCC[C@H](CCCCNCc2ccccc2)O1 (relative stereo) [17b, N-Benzyl-4-(trans-2-ethyl-2-phenyl-1,3-dioxan-4-yl)butan-1-amine] | 22 ± 1.9 | 569 ± 141 | – | 14 ± 6.1 | 5.20 | 50 ± 4% | 2.65 ± 0.04 | 14.1 | Ki [2]: 39 ± 13 nM; inhibition at 1 µM (κ-opioid receptor): 0%
CC[C@]1(c2ccccc2)OCC[C@H](CCCCN(C)Cc2ccccc2)O1 (relative stereo) [18b, N-Benzyl-4-(trans-2-ethyl-2-phenyl-1,3-dioxan-4-yl)-N-methyl-butan-1-amine] | 24 ± 6.3 | > 1000 | – | 8.7 ± 3.6 | 4.52 | 36% and 36 ± 1% | 3.54 ± 0.06 | 8.71 | Ki [2]: 20 ± 3.3 nM; inhibition at 1 µM (µ-opioid receptor): 0%; inhibition at 1 µM (κ-opioid receptor): 0%; inhibition at 1 µM (δ-opioid receptor): 0%; σ1:σ2 receptor selectivity (σ1 receptor [4]): 3 fold
c1ccc([C@@H]2OCC[C@H](CCCCN3CCCC3)O2)cc1 (relative stereo) [19a, 1-[4-(cis-2-Phenyl-1,3-dioxan-4-yl)butyl]pyrrolidine] | > 1000 | > 1000 | > 1000 | 154 ± 8 | 6.72 | 55% and 55 ± 2% | 0.09 ± 0.05 | 155 | –
CCC1(c2ccccc2)OCCC(CCNCc2ccccc2)O1 (stereo not shown) [2b] | – | – | – | – | – | – | – | – | Ki (σ1 receptor [6]): 27 nM
c1ccc(C(CCC[C@H]2CCO[C@@H](c3ccccc3)O2)N2CCCC2)cc1 (relative stereo) [27a, 1-[1-Phenyl-4-(cis-2-phenyl-1,3-dioxan-4-yl)butyl]pyrrolidine] | > 1000 | > 1000 | 366 | 161 ± 59 | 4.59 | 76% and 76 ± 3% | 2.2 ± 0.07 | 162 | –
